# Substitutions are numbered along the chain they refer to. Several values for one entry are separate records, joined by “and”; a condition that tells them apart may be missing. Identical values can stand only once. Like-named read-outs stand apart in the source and are kept apart here.
# Tests used:
# hAsc-1 S325A mutant = molecular target: T1, hAsc-1 S325A mutant (Homo sapiens, UniProt Q9NS82, S325A); assay: [3H]L-alanine uptake in HeLa cells, hAsc-1 S325A; type: cell-based; conditions: WT = 100, n=1-3 and mean
# T1 construct: expressed in transfected cells; host or cells: HeLa
# T1 sequence (Q9NS82 1-523 S325A): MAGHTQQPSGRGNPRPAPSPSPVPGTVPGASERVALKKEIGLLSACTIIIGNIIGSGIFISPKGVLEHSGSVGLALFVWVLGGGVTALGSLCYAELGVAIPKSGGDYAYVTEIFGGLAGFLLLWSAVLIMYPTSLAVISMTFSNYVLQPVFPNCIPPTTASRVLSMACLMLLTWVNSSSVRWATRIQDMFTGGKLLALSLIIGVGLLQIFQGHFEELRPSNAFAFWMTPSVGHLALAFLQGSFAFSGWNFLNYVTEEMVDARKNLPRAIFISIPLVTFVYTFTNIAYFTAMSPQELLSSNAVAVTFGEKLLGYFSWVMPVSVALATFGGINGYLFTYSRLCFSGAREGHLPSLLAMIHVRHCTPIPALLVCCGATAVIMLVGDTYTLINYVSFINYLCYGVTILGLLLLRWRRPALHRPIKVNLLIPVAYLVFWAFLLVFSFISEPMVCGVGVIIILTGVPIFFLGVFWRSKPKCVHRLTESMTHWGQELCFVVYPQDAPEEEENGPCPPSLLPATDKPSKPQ
# T1 sequence (P08195 1-529 partner): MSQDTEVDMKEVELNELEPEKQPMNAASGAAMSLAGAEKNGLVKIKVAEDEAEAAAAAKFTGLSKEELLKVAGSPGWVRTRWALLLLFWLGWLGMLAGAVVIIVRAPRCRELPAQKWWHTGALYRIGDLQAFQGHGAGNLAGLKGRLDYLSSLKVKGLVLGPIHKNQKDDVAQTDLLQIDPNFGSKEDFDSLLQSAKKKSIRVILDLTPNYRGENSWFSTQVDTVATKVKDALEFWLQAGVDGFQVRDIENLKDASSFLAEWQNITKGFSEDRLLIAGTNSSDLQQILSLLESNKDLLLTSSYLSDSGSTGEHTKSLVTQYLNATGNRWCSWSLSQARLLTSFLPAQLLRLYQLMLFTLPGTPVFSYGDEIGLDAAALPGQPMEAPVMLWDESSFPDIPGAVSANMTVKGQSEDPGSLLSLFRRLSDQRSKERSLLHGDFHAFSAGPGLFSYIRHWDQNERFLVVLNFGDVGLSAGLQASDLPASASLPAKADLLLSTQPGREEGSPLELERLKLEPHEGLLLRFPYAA
# Source text: (§1) All mutations were verified by sequencing.
# hAsc-1 Y280F mutant = molecular target: T2, hAsc-1 Y280F mutant (Homo sapiens, UniProt Q9NS82, Y280F); assay: [3H]L-alanine uptake in HeLa cells, hAsc-1 Y280F; type: cell-based; conditions: WT = 100, n=1-3 and mean
# T2 construct: expressed in transfected cells; host or cells: HeLa
# T2 sequence (Q9NS82 1-523 Y280F): T1 sequence (Q9NS82 1-523 S325A) with Y280F, A325S
# T2 sequence (P08195 1-529 partner): T1 sequence (P08195 1-529 partner)
# Source text: as §1
# wild-type BasC = assay: Thermostability-based L-alanine binding assay (GFP-fused protein, SEC); set-up: species or system Carnobacterium sp AT7; conditions: for Kd Wild-type binding curve, normalized signal: n=1-3
# Description: (§2) GFP-fused BasC proteins purified in DM were incubated for 10 min at 4–60 °C (Y236F and K154A mutants) or 4–70 °C (wild-type). In total, 200 µl of 2 mg ml^−1 protein was used for each temperature point. Protein was then centrifuged at 186,000 × g for 30 min. […] Fractions (200 µl) were collected and measured for GFP fluorescence. The peak heights were normalized to those of samples incubated at 4 °C and were fit to the Hill equation using the GraphPad Prism 4 program (GraphPad Software Inc., San Diego, CA). Melting temperatures (Tm) were determined by fitting the curves to a sigmoidal dose-response equation, as previously described.
# (§3) BasC-GFP proteins were then incubated at the calculated Tm for 10 min and centrifuged at 186,000 × g for 30 min. […] Binding affinities were determined by fitting the curves to a sigmoidal dose-response equation.
# BasC Y236F mutant = assay: Thermostability-based L-alanine binding assay, Y236F; set-up: species or system Carnobacterium sp AT7; conditions: for Kd Y236F binding curve, normalized signal: n=1-3
# Description: as §2, §3
compound,measurement,setting,value
C[C@H](N)C(=O)O [L-alanine],transport of 10 µM [3H]L-alanine normalized to wild-type,hAsc-1 S325A mutant,135.06 and 126.01 and 130.11
same,transport of 10 µM [3H]L-alanine normalized to wild-type,hAsc-1 S325A mutant; mean,130.39
same,transport of 10 µM [3H]L-alanine normalized to wild-type,hAsc-1 Y280F mutant,133.65 and 128.34 and 128.02 and 123.34
same,Kd,"wild-type BasC; WT BasC, incubated at Tm, L-alanine 0–200 mM, read-out: KD (apparent, thermostability-based)",34.5 ± 2.1 mM
same,"Kd Wild-type binding curve, normalized signal",wild-type BasC; [L-Alanine] 0.36 mM,4.340 and 4.304 and 4.417
same,"Kd Wild-type binding curve, normalized signal",wild-type BasC; [L-Alanine] 1.50 mM,6.609 and 6.614 and 8.554
same,"Kd Wild-type binding curve, normalized signal",wild-type BasC; [L-Alanine] 3.13 mM,10.226 and 10.310 and 9.554
same,"Kd Wild-type binding curve, normalized signal",wild-type BasC; [L-Alanine] 6.25 mM,16.111 and 16.814 and 19.554
same,"Kd Wild-type binding curve, normalized signal",wild-type BasC; [L-Alanine] 12.50 mM,30.546 and 30.584 and 35.221
same,"Kd Wild-type binding curve, normalized signal",wild-type BasC; [L-Alanine] 25 mM,47.282 and 48.296 and 50.554
same,"Kd Wild-type binding curve, normalized signal",wild-type BasC; [L-Alanine] 50 mM,70.152 and 71.030 and 72.225
same,"Kd Wild-type binding curve, normalized signal",wild-type BasC; [L-Alanine] 100 mM,82.376 and 81.876 and 86.554
same,"Kd Wild-type binding curve, normalized signal",wild-type BasC; [L-Alanine] 150 mM,97.076 and 84.776 and 95.225
same,"Kd Wild-type binding curve, normalized signal",wild-type BasC; [L-Alanine] 200 mM,100.000
same,Kd,"wild-type BasC; individual experiments n=1, n=2, n=3, read-out: Apparent Kd Wild type",35.9 mM and 35.4 mM and 32.2 mM
same,Kd,"wild-type BasC; mean of n=3, read-out: Apparent Kd Wild type, mean",34.5 mM
same,Kd,"BasC Y236F mutant; Y236F, incubated at Tm, L-alanine 0–200 mM, read-out: KD (apparent, thermostability-based)",42.3 ± 5 mM
same,"Kd Y236F binding curve, normalized signal",BasC Y236F mutant; [L-Alanine] 6.25 mM,22.582 and 17.176 and 16.654
same,"Kd Y236F binding curve, normalized signal",BasC Y236F mutant; [L-Alanine] 12.50 mM,33.547 and 26.076 and 17.575
same,"Kd Y236F binding curve, normalized signal",BasC Y236F mutant; [L-Alanine] 25 mM,44.758 and 42.547 and 31.773
same,"Kd Y236F binding curve, normalized signal",BasC Y236F mutant; [L-Alanine] 50 mM,72.230 and 70.914 and 57.702
same,"Kd Y236F binding curve, normalized signal",BasC Y236F mutant; [L-Alanine] 100 mM,89.225 and 96.379 and 94.240
same,"Kd Y236F binding curve, normalized signal",BasC Y236F mutant; [L-Alanine] 150 mM,94.446 and 95.445 and 86.456
same,"Kd Y236F binding curve, normalized signal",BasC Y236F mutant; [L-Alanine] 200 mM,100.000
same,Kd,"BasC Y236F mutant; individual experiments n=1, n=2, n=3, read-out: Apparent Kd Y236F",44.1 mM and 36.7 mM and 46.2 mM
same,Kd,"BasC Y236F mutant; mean of n=3, read-out: Apparent Kd Y236F, mean",42.3 mM

# — article PMC6472337, “L amino acid transporter structure and molecular bases for the asymmetry of substrate interaction” (Nature Communications, 2019)
